Experimental data from US20230139944A1, “TARGETING ALPHA3BETA1 INTEGRIN FOR TREATMENT OF CANCER AND OTHER DISEASES” (Board of Regents, The University of Texas System, priority 2019, published 2023).

Legend:
[1] = tested on: KPPC mice (ADM and PanIN lesions); test: FAK inhibitor (FAKi) treatment in vivo, H&E-stained pancreas sections; parameters: species or system mouse; conditions: oral gavage 50 mg/kg twice per day for 7 days
Experimental: (§1) FIGS. 2A-2H. Type I collagen homotrimers induce persistent proliferation signals via integrins. (A,B) KPPC; Col1^pdxKO cancer cells were transfected with siRNAs of integrins β1 (A), α1, α2, or α3 (B). Cells were then incubated with DMEM medium with 1% FBS for 6 hours before the treatment with col1 homotrimers or heterotrimers (50 μg/mL) for 16 hours. Cells were harvested, lysed, and examined by Western blotting. (C) Expression levels of selected integrin subunits in KPPC; Col1^pdxKO cancer cells. (D) Expression levels of selected integrin subunits human PDAC cell lines (Panc1, BxPC3, MiaPaca2, PSN1, HPAC, CAPAN1) based on RNA-seq data from the Broad Institute Cancer Cell Line Encyclopedia (CCLE) database. RMA (Robust Multi-array Average algorithm) normalization was used and data are the log 2 gene expression signal. (E) Expression profile of integrin α3 (Itga3) among various cell clusters from KPPC tumors, as shown in t-SNE plot using the single cell RNA sequencing analysis. (F) Representative images of integrin α3 IHC staining on KPPC tumor sections. Scale bar: 100 μm. (G) KPPC; Col1^pdxKO cancer cells growing in 6-well plates were cultured with regular medium (DMEM with 10% FBS) to reach 60% confluence. […] Percent area of ADM and PanIN lesions was quantified. * P<0.05. […]

[2] = tested on: activation of FAK, AKT, and ERK in KPPC; Col1^pdxKO cancer cells; test: Col1 homotrimer-induced pro-survival signaling examined by Western blotting; assay type: cell-based, mouse; conditions: VS-4718 1 μM, 16 hours, col1 homotrimers 50 μg/mL
Experimental: FIGS. 1A-1D. Type I collagen homotrimers induce pro-survival signaling through α3β1 integrin. KPPC; Col1^pdxKO cancer cells were transfected with siRNAs of DDR1 (A,B), integrin β1 (C), or integrin α3 (D). Cells were then incubated with DMEM medium with 1% FBS for 6 hours before the treatment with col1 homotrimers or heterotrimers (50 μg/mL) for 16 hours. Cells were harvested, lysed, and examined for indicated proteins by Western blotting.
as §1, with “signal.” for “signal. (E) Expression profile of integrin α3 (Itga3) among various cell clusters from KPPC tumors, as shown in t-SNE plot using the single cell RNA sequencing analysis. (F) Representative images of integrin α3 IHC staining on KPPC tumor sections. Scale bar: 100 μm. (G) KPPC; Col1^pdxKO cancer cells growing in 6-well plates were cultured with regular medium (DMEM with 10% FBS) to reach 60% confluence.”

FAK and PYK2 = test: Col1 homotrimer-induced signaling with FAK inhibitor, Western blotting; assay type: cell-based, mouse; conditions: VS-4718 1 μM, 16 hours, KPPC; Col1^pdxKO cancer cells, col1 homotrimers 50 μg/mL

Structure (SMILES): CNC(=O)c1ccccc1Nc1cc(Nc2ccc(N3CCOCC3)cc2OC)ncc1C(F)(F)F [VS-4718]
- early PanIN progression (percent area of ADM and PanIN lesions) [1]: inhibited early PanIN progression
- col1 homotrimer induced activation of FAK, AKT, and ERK [2]: abrogated
- inhibition of FAK and PYK2 (FAK and PYK2): inhibited FAK and PYK2
